Drawing on US20260226068A1, “IMIDAZOTRIAZINE IL-17A MODULATORS AND USES THEREOF” (DICE ALPHA, INC., priority 2023, published 2026), this text covers IC50 for 21 compounds.

Molecules are shown by their SMILES.

One assay has as its target T1, IL-17A/F (Homo sapiens, UniProt Q16552+Q96PD4).
T1 construct: purchased R&D Systems
T1 sequence (Q16552 24-155): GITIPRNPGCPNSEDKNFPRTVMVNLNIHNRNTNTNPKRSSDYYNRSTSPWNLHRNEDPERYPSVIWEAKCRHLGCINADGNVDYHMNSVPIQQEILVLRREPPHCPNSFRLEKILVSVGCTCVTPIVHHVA
T1 sequence (Q96PD4 31-163): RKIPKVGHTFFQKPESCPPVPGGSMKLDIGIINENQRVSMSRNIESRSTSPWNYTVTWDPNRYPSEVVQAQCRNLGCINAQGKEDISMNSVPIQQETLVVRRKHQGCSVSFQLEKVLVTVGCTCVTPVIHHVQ
Put plainly: IL-17A/F HEK-Blue cell assay (SEAP reporter). The format is cell-based. To be noted: HEK-Blue IL-17A reporter cells, IL17A/F 5 ng/mL, 20 hours, SEAP read at A630; read-out: HEK-Blue IL17AF (IC50 for IL-17A/F inhibition).

For the next assay, the target named is T2, IL-17A/A (Homo sapiens, UniProt Q16552).
T2 construct: purchased Genscript Z03228
T2 sequence (Q16552 24-155): T1 sequence (Q16552 24-155)
Briefly: IL-17A/A HEK-Blue cell assay (SEAP reporter). The format is cell-based. The settings on record: HEK-Blue IL-17A reporter cells, IL17A/A 5 ng/mL, 20 hours, SEAP read at A630; read-out: HEK-Blue IL17AA (IC50 for IL-17A/A inhibition).

Turning to `CCn1nccc1C(=O)N[C@H](c1cn2nc(CN3C[C@@H](C(F)(F)F)CNC3=O)c(C3CCOCC3)nc2n1)C1CCC(F)(F)CC1` [Compound 436], the IC50 at IL-17A/F is greater than 1000 nM; on IL-17A/A, 100 to 1000 nM.
As for `CCn1nccc1C(=O)N[C@H](c1cn2nc(C[C@H]3C[C@@H](C(F)(F)F)CNC3=O)c(N3CCN(C)CC3)nc2n1)C1CCC(F)(F)CC1` [Compound 296, N—((S)-(4,4-difluorocyclohexyl)(3-(4-methylpiperazin-1-yl)-2-(((3R,5R)-2-oxo-5-(trifluoromethyl)piperidin-3-yl)methyl)imidazo[1,2-b][1,2,4]triazin-6-yl)methyl)-1-ethyl-1H-pyrazole-5-carboxamide], the IC50 is 100 to 1000 nM on IL-17A/F and less than 100 nM at IL-17A/A.
For `CCn1nccc1C(=O)N[C@H](c1cn2nc(C[C@H]3C[C@@H](C(F)(F)F)CNC3=O)c(C3Cc4cncnc4C3)nc2n1)C1CCC(F)(F)CC1` (single isomer, unassigned) [Compound 402] the same measures were 100 to 1000 nM and less than 100 nM.
For `CCn1nccc1C(=O)N[C@H](c1cn2nc(C[C@H]3C[C@@H](C(F)(F)F)CNC3=O)c(CN3C(C)CC3C)nc2n1)C1CCC(F)(F)CC1` (stereo partly drawn) [Compound 338, N-((1S)-(4,4-difluorocyclohexyl)(3-((2,4-dimethylazetidin-1-yl)methyl)-2-(((3R,5R)-2-oxo-5-(trifluoromethyl)piperidin-3-yl)methyl)imidazo[1,2-b][1,2,4]triazin-6-yl)methyl)-1-ethyl-1H-pyrazole-5-carboxamide] the same measures were greater than 1000 nM and less than 100 nM.
The matching figures for `CCn1nccc1C(=O)N[C@H](c1cn2nc(C[C@H]3C[C@@H](C(F)(F)F)CNC3=O)c([C@H]3CN(C)CCO3)nc2n1)C1CCC(F)(F)CC1` (single isomer, unassigned) [Compound 382]: greater than 1000 nM and less than 100 nM.
Regarding `CCn1nccc1C(=O)N[C@H](c1cn2nc(C[C@H]3C[C@@H](C(F)(F)F)CNC3=O)c(C3CCCCN3C)nc2n1)C1CCC(F)(F)CC1` (stereo partly drawn) [Compound 230], the IC50 at IL-17A/F is greater than 1000 nM; on IL-17A/A it was 100 to 1000 nM.
The matching figures for `CCn1nccc1C(=O)N[C@H](c1cn2nc(C[C@H]3C[C@@H](C(F)(F)F)CNC3=O)c(CN3CCOCC3)nc2n1)[C@H]1CC[C@H](C)CC1` [Compound 374, 1-ethyl-N—((S)-((1r,4S)-4-methylcyclohexyl)(3-(morpholinomethyl)-2-(((3R,5R)-2-oxo-5-(trifluoromethyl)piperidin-3-yl)methyl)imidazo[1,2-b][1,2,4]triazin-6-yl)methyl)-1H-pyrazole-5-carboxamide]: 100 to 1000 nM and less than 100 nM.
With `CCn1nccc1C(=O)N[C@H](c1cn2nc(C[C@H]3C[C@@H](C(F)(F)F)CNC3=O)c(C3CCOCC3)nc2n1)C1CCCCCC1` [Compound 289, N—((S)-cycloheptyl(2-(((3R,5R)-2-oxo-5-(trifluoromethyl)piperidin-3-yl)methyl)-3-(tetrahydro-2H-pyran-4-yl)imidazo[1,2-b][1,2,4]triazin-6-yl)methyl)-1-ethyl-1H-pyrazole-5-carboxamide], the IC50 on IL-17A/F and on IL-17A/A was less than 100 nM throughout.
For the compound `CC(C)(C)n1nccc1C(=O)N[C@H](c1cn2nc(C[C@H]3C[C@@H](C(F)(F)F)CNC3=O)c(C3CCOCC3)nc2n1)C1CCC(F)(F)CC1` [Compound 414, 1-(tert-butyl)-N—((S)-(4,4-difluorocyclohexyl)(2-(((3R,5R)-2-oxo-5-(trifluoromethyl)piperidin-3-yl)methyl)-3-(tetrahydro-2H-pyran-4-yl)imidazo[1,2-b][1,2,4]triazin-6-yl)methyl)-1H-pyrazole-5-carboxamide], the IC50 was greater than 1000 nM on IL-17A/F and less than 100 nM on IL-17A/A.
`Cn1nccc1C(=O)N[C@H](c1cn2nc(C[C@H]3C[C@@H](C(F)(F)F)CNC3=O)c(C3CCOCC3)nc2n1)C1CCC(F)(F)CC1` [Compound 150, N-((1S)-(4,4-difluorocyclohexyl)(2-(((3R,5R)-2-oxo-5-(trifluoromethyl)piperidin-3-yl)methyl)-3-(tetrahydro-2H-pyran-4-yl)imidazo[1,2-b][1,2,4]triazin-6-yl)methyl)-1-methyl-1H-pyrazole-5-carboxamide]: the IC50 at IL-17A/F was 100 to 1000 nM; at IL-17A/A, less than 100 nM.
The matching figures for `CC(C)n1nccc1C(=O)N[C@H](c1cn2nc(C[C@H]3C[C@@H](C(F)(F)F)CNC3=O)c(C3CCOC3)nc2n1)C1CCC(F)(F)CC1` (single isomer, unassigned) [Compound 133]: 100 to 1000 nM and less than 100 nM.
For `CCn1nncc1C(=O)N[C@H](c1cn2nc(C[C@H]3C[C@@H](C(F)(F)F)CNC3=O)c(C3CCOCC3)nc2n1)C1CCC(F)(F)CC1` [Compound 364, N—((S)-(4,4-difluorocyclohexyl)(2-(((3R,5R)-2-oxo-5-(trifluoromethyl)piperidin-3-yl)methyl)-3-(tetrahydro-2H-pyran-4-yl)imidazo[1,2-b][1,2,4]triazin-6-yl)methyl)-1-ethyl-1H-1,2,3-triazole-5-carboxamide] the same measures were greater than 1000 nM and less than 100 nM.
The matching figures for `CCc1nonc1C(=O)N[C@H](c1cn2nc(C[C@H]3C[C@@H](C(F)(F)F)CNC3=O)c(C3CCOCC3)nc2n1)C1CC2(C1)CC(F)(F)C2` [Compound 315, N—((S)-(6,6-difluorospiro[3.3]heptan-2-yl)(2-(((3R,5R)-2-oxo-5-(trifluoromethyl)piperidin-3-yl)methyl)-3-(tetrahydro-2H-pyran-4-yl)imidazo[1,2-b][1,2,4]triazin-6-yl)methyl)-4-ethyl-1,2,5-oxadiazole-3-carboxamide]: greater than 1000 nM and less than 100 nM.
As to `CCn1nccc1C(=O)N[C@H](c1cn2nc(C[C@H]3C[C@@H](C(F)(F)F)CNC3=O)c(CN3CCC4(CC3)CC4)nc2n1)C1CCC(F)(F)CC1` [Compound 346, N—((S)-(3-((6-azaspiro[2.5]octan-6-yl)methyl)-2-(((3R,5R)-2-oxo-5-(trifluoromethyl)piperidin-3-yl)methyl)imidazo[1,2-b][1,2,4]triazin-6-yl)(4,4-difluorocyclohexyl)methyl)-1-ethyl-1H-pyrazole-5-carboxamide], the results for the IC50 on IL-17A/F and on IL-17A/A were greater than 1000 nM and less than 100 nM, respectively.
Regarding `CCn1nccc1C(=O)N[C@H](c1cn2nc(CN3C[C@H](C(F)(F)F)CNC3=O)c(C3CCOCC3)nc2n1)C1CCC(F)(F)CC1` [Compound 437], the values for the IC50 at IL-17A/F and at IL-17A/A were greater than 1000 nM and 100 to 1000 nM, respectively.
In the case of `CCn1nccc1C(=O)N[C@H](c1cn2nc(C[C@H]3C[C@@H](C(F)(F)F)CNC3=O)cnc2n1)[C@H]1CCCC(F)(F)C1` [Compound 30, N—((S)—((S)-3,3-difluorocyclohexyl)(2-(((3R,5R)-2-oxo-5-(trifluoromethyl)piperidin-3-yl)methyl)imidazo[1,2-b][1,2,4]triazin-6-yl)methyl)-1-ethyl-1H-pyrazole-5-carboxamide], the IC50 at IL-17A/F was greater than 1000 nM; on IL-17A/A it was less than 100 nM.
`CCn1nccc1C(=O)N[C@H](c1cn2nc(C[C@H]3C[C@@H](C(F)(F)F)CNC3=O)c(CN(C)C3CC3)nc2n1)C1CCC(F)(F)CC1` [Compound 356, N—((S)-(3-((cyclopropyl(methyl)amino)methyl)-2-(((3R,5R)-2-oxo-5-(trifluoromethyl)piperidin-3-yl)methyl)imidazo[1,2-b][1,2,4]triazin-6-yl)(4,4-difluorocyclohexyl)methyl)-1-ethyl-1H-pyrazole-5-carboxamide]: the IC50 was 100 to 1000 nM on IL-17A/F and less than 100 nM on IL-17A/A.
For `CCn1nccc1C(=O)N[C@H](c1cn2nc(C[C@H]3C[C@@H](C(F)(F)F)CNC3=O)c([C@@H]3CCCC(F)(F)C3)nc2n1)C1CCC(F)(F)CC1` (single isomer, unassigned) [Compound 272] the same measures were less than 100 nM and less than 100 nM.
For the compound `CCn1nccc1C(=O)N[C@H](c1cn2nc(C[C@H]3C[C@@H](C(F)(F)F)CNC3=O)c(CC3CCCOC3)nc2n1)C1CCC(F)(F)CC1` (stereo partly drawn) [Compound 213, N-((1S)-(4,4-difluorocyclohexyl)(2-(((3R,5R)-2-oxo-5-(trifluoromethyl)piperidin-3-yl)methyl)-3-((tetrahydro-2H-pyran-3-yl)methyl)imidazo[1,2-b][1,2,4]triazin-6-yl)methyl)-1-ethyl-1H-pyrazole-5-carboxamide], the IC50 is 100 to 1000 nM on IL-17A/F and less than 100 nM at IL-17A/A.
For `CCn1nccc1C(=O)N[C@H](c1cn2nc(C[C@H]3C[C@@H](C(F)(F)F)CNC3=O)c(Cn3ccnc3)nc2n1)C1CCC(F)(F)CC1` [Compound 334, N—((S)-(3-((1H-imidazol-1-yl)methyl)-2-(((3R,5R)-2-oxo-5-(trifluoromethyl)piperidin-3-yl)methyl)imidazo[1,2-b][1,2,4]triazin-6-yl)(4,4-difluorocyclohexyl)methyl)-1-ethyl-1H-pyrazole-5-carboxamide] the same measures were 100 to 1000 nM and less than 100 nM.
On to `CCn1nccc1C(=O)N[C@H](c1cn2nc(C[C@H]3C[C@@H](C(F)(F)F)CNC3=O)c(N3CCN4CCC[C@@H]4C3)nc2n1)C1CCC(F)(F)CC1` [Compound 368, N—((S)-(4,4-difluorocyclohexyl)(3-((R)-hexahydropyrrolo[1,2-a]pyrazin-2(1H)-yl)-2-(((3R,5R)-2-oxo-5-(trifluoromethyl)piperidin-3-yl)methyl)imidazo[1,2-b][1,2,4]triazin-6-yl)methyl)-1-ethyl-1H-pyrazole-5-carboxamide], for which the values for the IC50 on IL-17A/F and at IL-17A/A were 100 to 1000 nM and less than 100 nM, respectively.
